Experiments:
Format in all cases: binding
TEAD1 YAP50-100 = TEAD1 YAP50-100 (Homo sapiens, UniProt P28347); assay: TEAD1-YAP HTRF (TR-FRET) protein-protein interaction assay; conditions: TEAD1, YAP peptide 50-100, HTRF; for EC50: read-out: TEAD1 YAP50-100 HTRF combined: EC50
Experimental: (§1) Purified His-tagged TEAD protein (YAP Binding Domain, amino acids 217-447) is pre-incubated with Europium labelled anti-His antibody tracer (Perkin Elmer Cat #AD0110). Small molecule Inhibitors are then incubated with the TEAD-Eu protein complex for 30 minutes to allow for binding to TEAD protein. Biotinylated YAP peptide for TEAD-YAP assays (AA's 50-100) or biotinylated TAZ peptide for TEAD-TAZ assays (AA's 13-57) that has been pre-incubated with streptavidin-xl665 acceptor (CIS-Bio Cat #610SAXAC) or is added to the compound-TEAD mix. The TEAD-YAP-inhibitor mixture is then incubated for 60 minutes at room temperature. All reactions are carried out in a polystyrene plate. After 60 minutes, the plate is read on a plate reader using TR-FRET mode with wavelengths of 665 nm/615 nm. If YAP or TAZ binds to TEAD as expected, a TR-FRET signal results from the proximity of YAP or TAZ and TEAD after binding. If an inhibitor such as peptide 17 (Selleckchem Cat #58164) interferes with YAP-TEAD or TAZ-TEAD binding, the disruption of the YAP or TAZ:TEAD interaction results in a decrease in TR-FRET signal. The potency of compounds as YAP:TEAD or TAZ:TEAD protein-protein interaction (PPi) inhibitors is determined by an IC50 or EC50 value generated using a non-linear four parameter curve fit.

TEAD2 YAP50-100 = TEAD2 YAP50-100 (Homo sapiens, UniProt Q15562); assay: TEAD2-YAP HTRF (TR-FRET) protein-protein interaction assay; conditions: TEAD2, YAP peptide 50-100, HTRF; for EC50: read-out: TEAD2 YAP50-100 HTRF combined: EC50
Chain of TEAD2 YAP50-100 (Q15562 217-447): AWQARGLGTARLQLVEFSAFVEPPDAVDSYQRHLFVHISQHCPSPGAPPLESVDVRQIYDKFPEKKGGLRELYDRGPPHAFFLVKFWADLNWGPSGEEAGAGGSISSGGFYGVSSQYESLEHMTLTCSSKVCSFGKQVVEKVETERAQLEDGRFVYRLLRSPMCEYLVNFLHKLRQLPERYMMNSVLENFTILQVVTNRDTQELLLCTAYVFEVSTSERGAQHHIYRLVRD
Experimental: as §1

TEAD3 YAP50-100 = TEAD3 YAP50-100 (Homo sapiens, UniProt Q99594); assay: TEAD3-YAP HTRF (TR-FRET) protein-protein interaction assay; conditions: TEAD3, YAP peptide 50-100, HTRF; for EC50: read-out: TEAD3 YAP50-100 HTRF combined: EC50
Chain of TEAD3 YAP50-100 (Q99594 173-435 limits assumed): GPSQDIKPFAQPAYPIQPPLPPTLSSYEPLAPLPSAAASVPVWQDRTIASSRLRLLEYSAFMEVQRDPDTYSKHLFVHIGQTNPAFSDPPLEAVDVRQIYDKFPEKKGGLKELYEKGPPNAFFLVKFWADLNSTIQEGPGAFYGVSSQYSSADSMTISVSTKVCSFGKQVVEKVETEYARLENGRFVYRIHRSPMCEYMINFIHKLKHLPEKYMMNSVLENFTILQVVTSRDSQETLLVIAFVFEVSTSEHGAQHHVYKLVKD
Experimental: as §1

TEAD4 YAP50-100 = TEAD4 YAP50-100 (Homo sapiens, UniProt Q15561); assay: TEAD4-YAP HTRF (TR-FRET) protein-protein interaction assay; conditions: TEAD4, YAP peptide 50-100, HTRF; for EC50: read-out: TEAD4 YAP50-100 HTRF combined: EC50
Chain of TEAD4 YAP50-100 (Q15561 217-434 limits assumed): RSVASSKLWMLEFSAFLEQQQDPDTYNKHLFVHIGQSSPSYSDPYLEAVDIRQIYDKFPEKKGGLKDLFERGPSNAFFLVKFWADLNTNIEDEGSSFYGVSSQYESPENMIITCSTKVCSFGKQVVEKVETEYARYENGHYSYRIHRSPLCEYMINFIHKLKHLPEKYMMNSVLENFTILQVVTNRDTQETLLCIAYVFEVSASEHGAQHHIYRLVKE
Experimental: as §1

[1] = target: TEAD1 TAZ (amino acids 13-57) (Homo sapiens, UniProt P28347); assay: TEAD1-TAZ HTRF (TR-FRET) protein-protein interaction assay; conditions: for TEAD1 TAZ HTRF combined: Max % Inhibition: TEAD1, TAZ peptide; for EC50: TEAD1-TAZ HTRF, TR-FRET 665 nm/615 nm, read-out: TEAD1 TAZ HTRF combined: EC50
Chain of TEAD1 TAZ (amino acids 13-57) (P28347 167-426 limits assumed): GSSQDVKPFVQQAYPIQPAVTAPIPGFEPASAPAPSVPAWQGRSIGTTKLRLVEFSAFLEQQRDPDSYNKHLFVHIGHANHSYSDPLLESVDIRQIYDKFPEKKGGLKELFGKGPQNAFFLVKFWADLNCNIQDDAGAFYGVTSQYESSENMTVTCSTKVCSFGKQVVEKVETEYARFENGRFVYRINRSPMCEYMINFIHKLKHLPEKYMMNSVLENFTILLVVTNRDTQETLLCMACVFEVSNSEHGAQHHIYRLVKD
Experimental: as §1

[2] = target: TEAD2 TAZ (amino acids 13-57) (Homo sapiens, UniProt Q15562); assay: TEAD2-TAZ HTRF (TR-FRET) protein-protein interaction assay; conditions: for TEAD2 TAZ HTRF combined: Max % Inhibition: TEAD2, TAZ peptide; for EC50: TEAD2-TAZ HTRF, TR-FRET 665 nm/615 nm, read-out: TEAD2 TAZ HTRF combined: EC50
Chain of TEAD2 TAZ (amino acids 13-57) (Q15562 217-447): as the sequence (Q15562 217-447) above
Experimental: as §1

[3] = target: TEAD3 TAZ (amino acids 13-57) (Homo sapiens, UniProt Q99594); assay: TEAD3-TAZ HTRF (TR-FRET) protein-protein interaction assay; conditions: for TEAD3 TAZ HTRF combined: Max % Inhibition: TEAD3, TAZ peptide; for EC50: TEAD3-TAZ HTRF, TR-FRET 665 nm/615 nm, read-out: TEAD3 TAZ HTRF combined: EC50
Chain of TEAD3 TAZ (amino acids 13-57) (Q99594 173-435 limits assumed): as the sequence (Q99594 173-435 limits assumed) above
Experimental: as §1

[4] = target: TEAD4 TAZ (amino acids 13-57) (Homo sapiens, UniProt Q15561); assay: TEAD4-TAZ HTRF (TR-FRET) protein-protein interaction assay; conditions: for TEAD4 TAZ HTRF combined: Max % Inhibition: TEAD4, TAZ peptide; for EC50: TEAD4-TAZ HTRF, TR-FRET 665 nm/615 nm, read-out: TEAD4 TAZ HTRF combined: EC50
Chain of TEAD4 TAZ (amino acids 13-57) (Q15561 217-434 limits assumed): as the sequence (Q15561 217-434 limits assumed) above
Experimental: as §1

Chain of TEAD1 YAP50-100 (P28347 167-426 limits assumed): as the sequence (P28347 167-426 limits assumed) above

TEAD1 YAP50-100 HTRF combined: Max % Inhibition (TEAD1 YAP50-100) [%]	EC50 (TEAD1 YAP50-100) [nM]	TEAD2 YAP50-100 HTRF combined: Max % Inhibition (TEAD2 YAP50-100) [%]	EC50 (TEAD2 YAP50-100) [nM]	TEAD3 YAP50-100 HTRF combined: Max % Inhibition (TEAD3 YAP50-100) [%]	EC50 (TEAD3 YAP50-100) [nM]	TEAD4 YAP50-100 HTRF combined: Max % Inhibition (TEAD4 YAP50-100) [%]	EC50 (TEAD4 YAP50-100) [nM]	TEAD1 TAZ HTRF combined: Max % Inhibition [1] [%]	EC50 [1] [nM]	TEAD2 TAZ HTRF combined: Max % Inhibition [2] [%]	EC50 [2] [nM]	TEAD3 TAZ HTRF combined: Max % Inhibition [3] [%]	EC50 [3] [nM]	TEAD4 TAZ HTRF combined: Max % Inhibition [4] [%]	EC50 [4] [nM]	SMILES
74.0	120	67.0	20	69.5	150	58.5	100	65.5	110	68.5	20	59.5	160	56.0	80	Cc1nccnc1-c1nn2c(=O)cc(-c3ccc(CC(C)(C)C)cc3)[nH]c2c1C(=O)N1C[C@H](CF)[C@@H]1C (racemic) [Compound 73, 5-[4-(2,2-dimethylpropyl)phenyl]-2-(3-methylpyrazin-2-yl)-3-[rac-(2S,3S)-3-(fluoromethyl)-2-methyl-azetidine-1-carbonyl]-4H-pyrazolo[1,5-a]pyrimidin-7-one]
71.0	70	67.5	20	71.5	180	48.5	460	61.5	100	63.0	20	58.5	210	41.5	410	CC1CCN1C(=O)c1nn2c(=O)cc(-c3ccc(C4CCCCC4)cc3)[nH]c2c1C(=O)N1CC(CF)C1 (single isomer, unassigned) [Enantiomer A, Example 33, 5-(4-Cyclohexylphenyl)-3-(3-(fluoromethyl)azetidine-1-carbonyl)-2-(2-methylazetidine-1-carbonyl)pyrazolo[1,5-a]pyrimidin-7(4H)-one]
62.0	80	61.5	10	69.5	100	42.0	500	44.0	110	51.5	10	59.5	110	32.0	460	C[C@H](CO)c1nn2c(=O)cc(-c3ccc(C4CCCCC4)cc3)[nH]c2c1C(=O)N1CC(CF)C1 (single isomer, unassigned) [Enantiomer A, Example 55]
66.0	140	66.0	40	62.0	180	40.0	1600	55.5	130	66.0	40	55.5	200	30.5	1550	O=C(c1c(C2CNCCO2)nn2c(=O)cc(-c3ccc(C4CCCCC4)cc3)[nH]c12)N1CC(CF)C1 (single isomer, unassigned) [Enantiomer A, Example 63, 5-(4-Cyclohexylphenyl)-3-[3-(fluoromethyl)azetidine-1-carbonyl]-2-morpholin-2-yl-4H-pyrazolo[1,5-a]pyrimidin-7-one]
72.0	80	72.0	20	69.0	150	49.0	670	64.0	100	68.0	20	58.5	200	37.5	570	CC1CCN1C(=O)c1nn2c(=O)cc(-c3ccc(C4CCCCC4)cc3)[nH]c2c1C(=O)N1CC(CF)C1 (single isomer, unassigned) [Enantiomer B, Example 33, 5-(4-Cyclohexylphenyl)-3-(3-(fluoromethyl)azetidine-1-carbonyl)-2-(2-methylazetidine-1-carbonyl)pyrazolo[1,5-a]pyrimidin-7(4H)-one]
71.0	80	64.0	10	61.5	80	36.5	200	45.5	90	57.0	20	53.5	100	27.0	140	C[C@@H](CO)c1nn2c(=O)cc(-c3ccc(C4CCCCC4)cc3)[nH]c2c1C(=O)N1CC(CF)C1 (single isomer, unassigned) [Enantiomer B, Example 55]
62.0	90	62.5	40	59.5	150	35.0	1090	52.0	140	65.0	30	52.0	160	28.0	590	O=C(c1c(C2CNCCO2)nn2c(=O)cc(-c3ccc(C4CCCCC4)cc3)[nH]c12)N1CC(CF)C1 (single isomer, unassigned) [Enantiomer B, Example 63, 5-(4-Cyclohexylphenyl)-3-[3-(fluoromethyl)azetidine-1-carbonyl]-2-morpholin-2-yl-4H-pyrazolo[1,5-a]pyrimidin-7-one]
74.0	370	92.0	60	81.5	370	69.5	2700	63.0	320	89.0	60	74.5	430	67.0	2250	Cc1nccnc1-c1nn2c(=O)cc(-c3ccc(OC(c4ccccc4)C(F)(F)F)cc3)[nH]c2c1C(=O)N1C[C@H](CF)[C@@H]1C (single isomer, unassigned) [Final product obtained using Enantiomer A from Step 1, Example 56]
